# In publication PMC3482300 (Nature, 2012):
# Tests used:
# NTS1-GW5 = NTS1-GW5 (Rattus norvegicus, UniProt P20789, A86L/E166A/F358A/G215A/L310A/V360A); assay: Competition of [3H]NT binding by SR48692, NTS1-GW5
# NTS1 [1] = settings: cited from earlier work
# NTS1 [2] = settings: cited from earlier work; remark: listed apart in the source
# Chain of NTS1-GW5 (P20789 43-396 A86L/E166A/G215A/L310A/F358A/V360A): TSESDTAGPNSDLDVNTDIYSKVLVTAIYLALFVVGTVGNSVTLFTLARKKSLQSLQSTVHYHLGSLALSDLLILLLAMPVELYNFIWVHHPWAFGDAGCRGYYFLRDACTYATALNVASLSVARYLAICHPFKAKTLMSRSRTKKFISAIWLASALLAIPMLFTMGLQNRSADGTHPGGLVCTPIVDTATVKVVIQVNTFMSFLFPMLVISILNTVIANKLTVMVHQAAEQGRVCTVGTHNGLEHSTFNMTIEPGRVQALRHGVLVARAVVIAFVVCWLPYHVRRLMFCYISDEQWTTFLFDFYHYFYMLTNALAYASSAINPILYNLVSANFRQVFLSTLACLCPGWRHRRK
compound,measurement,setting,value
COc1cccc(OC)c1-c1cc(C(=O)NC2(C(=O)O)C3CC4CC(C3)CC2C4)nn1-c1ccnc2cc(Cl)ccc12 (stereo not shown) [SR48692],apparent affinity for SR48692 compared to wild-type,NTS1-GW5,lower
Arg-Arg-Pro-Tyr-Ile-Leu [NT8-13],efficacy compared to full-length NT,NTS1 [1],higher potency and efficacy
same,potency compared to full-length NT,NTS1 [1],higher potency
KIPYIL [neuromedin N],binding to NTS1,NTS1 [2],binds
